This data set concerns S-180 mice (tumor model). The conditions noted are these: mouse, in vivo, 1 day. As for the experimental part:
Method: In 1 ml of saline (0.01 M phosphate, 0.15 M NaCl, pH 7.4) were dissolved 10 mg of each sample (10 mg/ml) and the predetermined amount of each test reagent shown in Table 2. Then, 0.1 ml of each obtained solution and 0.1 ml of an aqueous solution (10 mg/ml) of Evans blue were intravenously administered to S-180 mice (tumor model) The tumor size of the mice was a diameter of 5 to 7 mm. The next day, each mouse was dissected and solid tumors were taken out therefrom. Evans blue was extracted by a conventional method and the leaked Evans blue was quantified by absorption of 560 nm (see Non-Patent Document 1).

Some results are limits rather than exact numbers.

On to `O=[N+]([O-])OCC(CO[N+](=O)[O-])O[N+](=O)[O-]` [nitroglycerin], for which the “enhanced effect (tumor delivery)” value is recorded as at least 30%.

For the origin of these results see patent publication US11464866B2, “Pharmaceutical composition containing macromolecular drug” (BIODYNAMIC RESEARCH FOUNDATION, priority 2016, dated 2022).
